Test results published in patent publication US4681091A, “Combination modality cancer therapy” (priority 1985, dated 1987).
Read-outs that look alike come from different tables or passages of the source.

How the values were obtained:
mammalian cell culture [1] = assay: cells
Description: Immediately after addition of the drug to the culture media, the petri dishes containing the cells are placed into aluminium chambers which are then degassed and purged with nitrogen to produce hypoxia. The degassing/back-filling cycle is repeated two times and the cells are irradiated with cobalt-60 gamma rays in the aluminium chambers at the end of the two hours. Control, un-irradiated cell cultures are exposed to the drug in various concentrations to assess drug cytotoxicity. Immediately following irradiation the cells are removed from the petri dishes using trypsin enzyme for 6 minutes, pipetted into single cell suspensions, and serially diluted for subculturing in triplicate petri dishes containing 5 cc of fresh culture media without the test compound. These dishes are incubated in 5% CO2 at 37° C. for 10 days and, following staining, the colonies are counted to produce survival curves (surviving fraction of cells versus compound concentration or radiation dose). As in the bacterial radiosensitization tests, baseline curves for irradiation of the mammalian cells under oxic and hypoxic conditions in the absence of the compound are also determined to allow a quantitative estimation of the efficiency of the compound in sensitizing the cells to radiation-induced killing by deriving enhancement ratios.
In FIG. 3, the dotted line represents the standard or average reported misonidazole response. The symbols " " and ` ` represent experimental misonidazole response and the experimental Rh compound response respectively.

mammalian cell culture [2] = details: for 1 hour Aerobic Cytotoxicity: aerobic mammalian cell culture; for 1 hour hypoxic cytotoxicity: hypoxic mammalian cell culture
[3] = test system: bacterial cells (salmonella typhimurium TM677)
in vitro = details: salmonella typhimurium tm677, N/No (toxicity)
[4] = test system: bacterial cells (salmonella typhimurium TM677); details: salmonella typhimurium tm677, 0 h, 200 µM

In the case of `NCCN.NCCN.[Cl-].[Cl-].[Cl-].[Cl-].[Cl-].[Cl-].[Cl-].[Cl-].[NH3+]CC[NH3+].[Rh+3].[Rh+3]` [[RhenCl4]2 [enH2]], the “aerobic (oxic) response” value (mammalian cell culture [1]; FIG. 3, aerobic (oxic)) is reported as “effectively zero”, the “effectiveness compared with misonidazole” value (mammalian cell culture [1]; from concentrations giving ser 1.6) is reported as 75% and the “1 hour Aerobic Cytotoxicity” value (mammalian cell culture [2]; 100 µM) is reported as 78.0%. The “1 hour Aerobic Cytotoxicity” value (mammalian cell culture [2]; 1000 µM) was 61.0%, the “1 hour Aerobic Cytotoxicity” value (mammalian cell culture [2]; 10000 µM) was 6.1% and the “1 hour hypoxic cytotoxicity” value (mammalian cell culture [2]; 100 µM) was 95%. The “1 hour hypoxic cytotoxicity” value (mammalian cell culture [2]; 330 µM) was 83.6%, the “1 hour hypoxic cytotoxicity” value (mammalian cell culture [2]; 1000 µM) was 62.7% and the “1 hour hypoxic cytotoxicity” value (mammalian cell culture [2]; 3300 µM) was 22%. The “1 hour hypoxic cytotoxicity” value (mammalian cell culture [2]; 10000 µM) was less than 1%.

In the case of `[Cl][Rh]([Cl])[Cl]` [rhodium trichloride], the “toxicity, water solubility or sensitisation effect (combined statement)” value (shortened to “toxicity … (combined statement)”) [3] is reported as “either too toxic, not soluble in water or failed altogether to show a sensitisation effect”.

For `O=[N+]([O-])[Rh-3]([N+](=O)[O-])([N+](=O)[O-])([N+](=O)[O-])([N+](=O)[O-])[N+](=O)[O-].[K+].[K+].[K+]` [Compound 2, potassium hexanitrorhodium (III)], the viability at 0 h, 200 µM (in vitro) was 100%, the viability at 0.5 h, 200 µM (in vitro) was 105% and the “N/No (toxicity)” value [4] was 1. For the same compound, the “improvement for cell-kill (N/No), sensitised vs unsensitised cells” value [3] was “dramatic improvement for cell-kill (N/No)”.

With `COCC(O)Cn1ccnc1[N+](=O)[O-]` (stereo not shown) [misonidazole, reference compound] the EC (SER 1.6) (mammalian cell culture [1]; read-out: C1.6: concentration required to give an ser (sensitizer enhancement ratio) of 1.6) was 1500 µM.

In the case of `CCCC[N+](CCCC)(CCCC)CCCC.[C-]#[O+].[C-]#[O+].[Cl-].[Cl-].[Rh+]` [tetra-n-butylammoniumdicarbonyldichlororhodium (I)], the “toxicity … (combined statement)” value [3] is reported as “either too toxic, not soluble in water or failed altogether to show a sensitisation effect”.

With `[O-2].[O-2].[O-2].[Rh+3].[Rh+3]` [rhodium oxide] the “toxicity … (combined statement)” value [3] was “either too toxic, not soluble in water or failed altogether to show a sensitisation effect”.

For “dichlorobis (ethylenediamine) rhodium (III) [Compound 3]”, the “improvement for cell-kill (N/No), sensitised vs unsensitised cells” value [3] was “dramatic improvement for cell-kill (N/No)”.
